From patent US20190185865A1, “USE OF PROKARYOTIC TRANSCRIPTIONAL ACTIVATORS AS METABOLITE BIOSENSORS IN EUKARYOTIC CELLS” (Danmarks Tekniske Universitet, priority 2016, published 2019)

Molecular target: T1, BenM (Acinetobacter baylyi, UniProt O68014)
T1 construct: expressed in transfected cells; host or cells: Saccharomyces cerevisiae CEN.PK113-5A, chromosomal integration; promoters TDH3p, TEF1p, RNR2p or REV1p
Test: CCM-induced GFP expression in yeast strains combining BenM expression cassettes and CYC1p reporter promoter variants (flow cytometry)
Assay type: cell-based, Saccharomyces cerevisiae
Conditions: for FC (+/−CCM): 1.4 mM CCM, 24 h
Text: Strains, chemicals and media. Saccharomyces cerevisiae CEN.PK102-5B (MATa ura3-52 his3Δ1 leu2-3/112 MAL2-8^c SUC2), CEN.PK113-5A (MATa, trp1 his3Δ1 leu2-3/112 MAL2-8^c SUC2) and CEN.PK113-7D (wild type, MATa MAL2-8^c SUC2) strains were obtained from Peter Kotter (Johann Wolfgang Goethe-University Frankfurt, Germany). In principal any other yeast strains may be used, such as one obtained from public repository EuroScarf. EasyClone plasmids used in this work are described in Jensen, N. B. et al. EasyClone: method for iterative chromosomal integration of multiple genes in Saccharomyces cerevisiae. FEMS Yeast Res. 14, 238-48 (2014). Escherichia coli strain DH5a was used as a host for cloning and plasmid propagation. The chemicals and Pfu TURBO DNA polymerase were commercially obtained (Sigma-Aldrich and Agilent Technologies Inc., respectively). All acids used were >97% in purity. S. cerevisiae cells were grown at 30° C. in synthetic complete medium as well as drop-out media and agar plates were prepared using pre-mixed drop-out powders (Sigma-Aldrich). Mineral medium was freshly prepared as described previously. For all media containing diacids, 1.4 mM of the individual diacids were dissolved in mineral medium and pH adjusted to 4.5 before sterile filtration. For CCM several dilutions were made to examine the performance of the CCM biosensor. For naringenin, mineral medium was supplemented with 0, 0.05, 0.10 or 0.20 mM naringenin, dissolved in ethanol, the final ethanol concentration for each medium was 2% (v/v), and the final pH of the medium was adjusted to 6.0. E. coli cells were grown at 37° C. in Luria-Bertani (LB) medium supplemented with 100 μg/mL ampicillin.
Events were analyzed using FlowJo software (TreeStar Inc.).

[1] = strain MeLS0162, RNR2p-BenM + 249bp_CYC1p:GFP
[2] = strain MeLS0163, RNR2p-BenM + 209bp_CYC1p:GFP
[3] = strain MeLS0164, TDH3p-BenM + 491bp_CYC1p:GFP
[4] = strain MeLS0165, TDH3p-BenM + 272bp_CYC1p:GFP
[5] = strain MeLS0166, TDH3p-BenM + 249bp_CYC1p:GFP
[6] = strain MeLS0167, TDH3p-BenM + 209bp_CYC1p:GFP
[7] = strain MeLS0168, TEF1p-BenM + 491bp_CYC1p_BenO_T1:GFP
[8] = strain MeLS0169, TEF1p-BenM + 249bp_CYC1p_BenO_T1:GFP
[9] = strain MeLS0170, RNR2p-BenM + 491bp_CYC1p_BenO_T1:GFP
[10] = strain MeLS0171, RNR2p-BenM + 249bp_CYC1p_BenO_T1:GFP
[11] = strain MeLS0172, TDH3p-BenM + 491bp_CYC1p_BenO_T1:GFP
[12] = strain MeLS0173, TDH3p-BenM + 249bp_CYC1p_BenO_T1:GFP
[13] = strain MeLS0182, TEF1p-BenM + 272bp_CYC1p_BenO_T2:GFP
[14] = strain MeLS0183, TEF1p-BenM + 272bp_CYC1p_BenO_T1/T2:GFP
[15] = strain MeLS0184, TEF1p-BenM + 249bp_CYC1p_BenO_T2:GFP
[16] = strain MeLS0185, TEF1p-BenM + 249bp_CYC1p_BenO_T1/T2:GFP
[17] = strain MeLS0186, REV1p-BenM + 272bp_CYC1p_BenO_T2:GFP
[18] = strain MeLS0187, REV1p-BenM + 272bp_CYC1p_BenO_T1/T2:GFP
[19] = strain MeLS0188, REV1p-BenM + 249bp_CYC1p_BenO_T2:GFP
[20] = strain MeLS0189, REV1p-BenM + 249bp_CYC1p_BenO_T1/T2:GFP
[21] = strain MeLS0190, TDH3p-BenM + 272bp_CYC1p_BenO_T2:GFP
[22] = strain MeLS0191, TDH3p-BenM + 272bp_CYC1p_BenO_T1/T2:GFP
[23] = strain MeLS0192, TDH3p-BenM + 249bp_CYC1p_BenO_T2:GFP
[24] = strain MeLS0193, TDH3p-BenM + 249bp_CYC1p_BenO_T1/T2:GFP
[25] = strain MeLS0195, RNR2p-BenM + 272bp_CYC1p_BenO_T1/T2:GFP
[26] = strain MeLS0196, RNR2p-BenM + 249bp_CYC1p_BenO_T2:GFP
[27] = strain MeLS0197, RNR2p-BenM + 249bp_CYC1p_BenO_T1/T2:GFP
[28] = strain MeLS0263, TDH3p-BenM + 491bp_CYC1p_BenO_T2:GFP
[29] = strain MeLS0264, TDH3p-BenM + 209bp_CYC1p_BenO_T2:GFP
[30] = strain MeLS0265, RNR2p-BenM + 491bp_CYC1p_BenO_T2:GFP
[31] = strain MeLS0266, RNR2p-BenM + 209bp_CYC1p_BenO_T2:GFP
[32] = strain MeLS0267, TDH3p-BenM + 491bp_CYC1p_BenO_T1/T2:GFP
[33] = strain MeLS0268, TDH3p-BenM + 209bp_CYC1p_BenO_T1/T2:GFP
[34] = strain MeLS0269, RNR2p-BenM + 491bp_CYC1p_BenO_T1/T2:GFP
[35] = strain MelS0194, RNR2p-BenM + 272bp_CYC1p_BenO_T2:GFP

T1 sequence (O68014 whole entry): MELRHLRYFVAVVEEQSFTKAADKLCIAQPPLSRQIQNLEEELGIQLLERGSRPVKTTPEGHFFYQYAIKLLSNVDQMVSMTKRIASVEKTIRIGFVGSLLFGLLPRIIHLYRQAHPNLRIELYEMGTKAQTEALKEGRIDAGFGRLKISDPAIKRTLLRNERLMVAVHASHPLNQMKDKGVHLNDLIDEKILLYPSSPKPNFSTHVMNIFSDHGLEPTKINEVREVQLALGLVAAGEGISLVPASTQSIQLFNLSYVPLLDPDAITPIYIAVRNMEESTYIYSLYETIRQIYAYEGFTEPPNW

For `O=C(O)/C=C\C=C/C(=O)O` [CCM, cis, cis-muconic acid], which “Mean fluorescense intensities of GFP (24 h), CCM (1.4 mM)” value (“Mean fluorescense intensities of GFP” below) [1] is on record?
The value was 164.

And the “FC (+/−CCM)” value [1]?
Its value is 1.121.

And the “Mean fluorescense intensities of GFP” value [2]?
The value was 164.

What about the “FC (+/−CCM)” value [2] of the same molecule?
Its value is 1.121.

What about the “Mean fluorescense intensities of GFP” value [3] of the same molecule?
The value was 4509.

What about the “FC (+/−CCM)” value [3] of the same molecule?
The value was 1.126.

What about the “Mean fluorescense intensities of GFP” value [4] of the same molecule?
Its value is 216.

What about the “FC (+/−CCM)” value [4] of the same molecule?
The value was 1.157.

What about the “Mean fluorescense intensities of GFP” value [5] of the same molecule?
The value was 205.

And the “FC (+/−CCM)” value [5]?
The value was 1.131.

And the “Mean fluorescense intensities of GFP” value [6]?
The value was 194.

What about the “FC (+/−CCM)” value [6] of the same molecule?
Its value is 1.09.

And the “Mean fluorescense intensities of GFP” value [7]?
The value was 20250.

And the “FC (+/−CCM)” value [7]?
The value was 1.312.

What about the “Mean fluorescense intensities of GFP” value [8] of the same molecule?
The value was 2913.

And the “FC (+/−CCM)” value [8]?
The value was 4.337.

And the “Mean fluorescense intensities of GFP” value [9]?
The value was 6114.

What about the “FC (+/−CCM)” value [9] of the same molecule?
Its value is 1.089.

And the “Mean fluorescense intensities of GFP” value [10]?
The value was 290.

And the “FC (+/−CCM)” value [10]?
The value was 1.549.

And the “Mean fluorescense intensities of GFP” value [11]?
Its value is 10605.

And the “FC (+/−CCM)” value [11]?
Its value is 1.538.

What about the “Mean fluorescense intensities of GFP” value [12] of the same molecule?
Its value is 3554.

And the “FC (+/−CCM)” value [12]?
The value was 4.707.

What about the “Mean fluorescense intensities of GFP” value [13] of the same molecule?
The value was 211.

And the “FC (+/−CCM)” value [13]?
Its value is 1.155.

What about the “Mean fluorescense intensities of GFP” value [14] of the same molecule?
The value was 511.

What about the “FC (+/−CCM)” value [14] of the same molecule?
The value was 1.969.

And the “Mean fluorescense intensities of GFP” value [15]?
Its value is 475.

And the “FC (+/−CCM)” value [15]?
The value was 1.653.

And the “Mean fluorescense intensities of GFP” value [16]?
The value was 9992.

What about the “FC (+/−CCM)” value [16] of the same molecule?
The value was 3.797.

And the “Mean fluorescense intensities of GFP” value [17]?
Its value is 197.

What about the “FC (+/−CCM)” value [17] of the same molecule?
Its value is 1.201.

What about the “Mean fluorescense intensities of GFP” value [18] of the same molecule?
Its value is 370.

What about the “FC (+/−CCM)” value [18] of the same molecule?
Its value is 1.789.

And the “Mean fluorescense intensities of GFP” value [19]?
The value was 194.

And the “FC (+/−CCM)” value [19]?
The value was 1.215.

And the “Mean fluorescense intensities of GFP” value [20]?
The value was 181.

What about the “FC (+/−CCM)” value [20] of the same molecule?
Its value is 1.22.

And the “Mean fluorescense intensities of GFP” value [21]?
The value was 218.

What about the “FC (+/−CCM)” value [21] of the same molecule?
The value was 1.088.

And the “Mean fluorescense intensities of GFP” value [22]?
The value was 691.

What about the “FC (+/−CCM)” value [22] of the same molecule?
The value was 1.892.

And the “Mean fluorescense intensities of GFP” value [23]?
The value was 978.

What about the “FC (+/−CCM)” value [23] of the same molecule?
The value was 1.761.

And the “Mean fluorescense intensities of GFP” value [24]?
The value was 1630.

And the “FC (+/−CCM)” value [24]?
Its value is 4.004.

And the “Mean fluorescense intensities of GFP” value [25]?
Its value is 199.

And the “FC (+/−CCM)” value [25]?
The value was 1.238.

What about the “Mean fluorescense intensities of GFP” value [26] of the same molecule?
The value was 349.

And the “FC (+/−CCM)” value [26]?
The value was 1.575.

What about the “Mean fluorescense intensities of GFP” value [27] of the same molecule?
Its value is 256.

And the “FC (+/−CCM)” value [27]?
Its value is 1.571.

What about the “Mean fluorescense intensities of GFP” value [28] of the same molecule?
The value was 1197.

What about the “FC (+/−CCM)” value [28] of the same molecule?
The value was 1.898.

And the “Mean fluorescense intensities of GFP” value [29]?
The value was 527.

What about the “FC (+/−CCM)” value [29] of the same molecule?
The value was 1.495.

And the “Mean fluorescense intensities of GFP” value [30]?
Its value is 698.

And the “FC (+/−CCM)” value [30]?
The value was 1.513.

What about the “Mean fluorescense intensities of GFP” value [31] of the same molecule?
Its value is 179.

What about the “FC (+/−CCM)” value [31] of the same molecule?
Its value is 1.072.

And the “Mean fluorescense intensities of GFP” value [32]?
The value was 2218.

What about the “FC (+/−CCM)” value [32] of the same molecule?
Its value is 2.64.

What about the “Mean fluorescense intensities of GFP” value [33] of the same molecule?
The value was 2172.

And the “FC (+/−CCM)” value [33]?
Its value is 3.25.

What about the “Mean fluorescense intensities of GFP” value [34] of the same molecule?
Its value is 2589.

And the “FC (+/−CCM)” value [34]?
The value was 2.005.

What about the “Mean fluorescense intensities of GFP” value [35] of the same molecule?
Its value is 258.

What about the “FC (+/−CCM)” value [35] of the same molecule?
The value was 1.065.

What about the “specificity of GFP induction among diacids tested” value (wild-type BenM, diacids 1.4 mM, pH 4.5, 24 h) of the same molecule?
Its value is “induce GFP expression specifically in response to CCM”.
